# Measurements taken from patent US20230029496A1, “AMINO ACID ALTERNATIVE CURING SYSTEM” (THE TEXAS A&M UNIVERSITY SYSTEM, priority 2019, published 2023).
# Values joined by “and” are separate entries in the source; they are usually repeats but may differ in a detail not shown here. Equal values may be shown once. Read-outs that look alike come from different tables or passages of the source. Marks after values point to notes of the source that are not given here.
# Experiments:
# [1] = system: nitric oxide synthase system; settings: poultry; for Residual Nitrite, LSMean main effect of Temperature: L-arginine
# Experimental: (§1) Fresh ground meat (beef, pork or poultry) was separated in ˜0.5 Kg batches and mixed with 2% salt and 10% added water. […] Each individual batch was mixed (1 min) in a food processor, removed for temperature and pH analyses and then placed into a jerky extruder tube. Approximately 25 g of sample were extruded into 50 mL centrifuge, then capped and labeled and placed into a controlled water batch and heated to a designated internal endpoint temperature (132, 158, or 165° F.).
# (§2) Samples also contained 547 ppm sodium erythorbate, a cure accelerator (Phase I) and without sodium erythorbate (Phase II). Samples were placed into test tubes and heated in a controlled water bath to 132, 158 and 165° F. Samples were held in a 40° F. cooler for seven days then tested for residual nitrite. Residual nitrite was tested after deproteinization for amino acid analysis by HPLC. Determination of nitrite (UV/VIS Spectrophotometric Method) was used to detect any residual nitrite for best results in detecting minute amounts of nitrite. Residual nitrite levels were read in a 96 well plate reader at 540 nm.
# (§3) Both phases of the experiment were designed as a factorial (concentration level and endpoint temperature) randomized complete block design with three replications. […] Least squares means were generated and Tukey's HSD used to determine significance at P≤0.05.
# [2] = system: nitric oxide synthase system
# Experimental: After thermal processing and chilling according to USDA-FSIS Appendix A—Thermal processing (71° C.) and B—Cooling procedures (2° C.) guidelines, the frankfurters will be vacuum packaged and stored under refrigeration (2° C.) until analyzed at 0, 14, 28 and 56 days post manufacture.
# The samples were analyzed for residual nitrite after deproteinization by sample preparation for amino acid analysis by HPLC.
# Samples were vacuum packaged and refrigerated and evaluated on Day 1, 7, 14, 28 and 56 post manufacture. Differences between treatment and control samples will be determined using Tukey's Least Significant Difference procedure at P≤0.05 level. The experiment was replicated three times.
# NOS system = assay: NO-heme, total heme, nitrosylation in test beef frankfurters (Example 12)
# Experimental: The remaining nonmeat ingredients were added (except the antimicrobial) and chopped at 2000 rpm for one minute. Protecta (sodium acetate antimicrobial) was added and the emulsion chopped at 4000 rpm for one minute. The emulsion was evacuated and placed into a vacuum assisted stuffer where each test emulsion was stuffed and twist linked into 22 mm cellulose casings weighing 40 g each. The frankfurter links were hung on smokehouse trucks, placed into a commercial smokehouse and thermally processed to 160° F. (Table 18).
# After thermal processing and chilling (40° F.), the casings were peeled from the frankfurters and were vacuum packaged and stored under refrigerated conditions for residual nitrite and nitrosylation. […] This was done to determine if the L-arginine could the NOS system to generate sufficient NO for cure color development and residual nitrite for antioxidant and antimicrobial effect.
# [3] = system: nitric oxide synthase system; settings: beef, Phase I, with 547 ppm sodium erythorbate
# Experimental: as §1, §2, §3
# [4] = 1000 ppm L-arginine with 547 ppm sodium erythorbate
# [5] = 1000 ppm L-arginine, no cure accelerator
# [6] = 5000 ppm L-arginine with 547 ppm sodium erythorbate
# [7] = 5000 ppm L-arginine, no cure accelerator
smiles,measurement,setting,value
N=C(N)NCCC[C@H](N)C(=O)O [L-arginine],"Residual Nitrite, LSMean main effect of Concentration","[1]; Phase I, with 547 ppm sodium erythorbate, 1000 ppm L-arginine",65.44^ab ppm and 65.44 ppm
same,"Residual Nitrite, LSMean Conc × Temp","[1]; Phase I, with 547 ppm sodium erythorbate, 1000 ppm L-arginine, 132° F.",76.46^ab ppm
same,"Residual Nitrite, LSMean Conc × Temp","[1]; Phase I, with 547 ppm sodium erythorbate, 1000 ppm L-arginine, 158° F.",60.52^abc ppm
same,"Residual Nitrite, LSMean Conc × Temp","[1]; Phase I, with 547 ppm sodium erythorbate, 1000 ppm L-arginine, 165° F.",59.36^abc ppm
same,"Residual Nitrite, LSMean main effect of Concentration","[1]; Phase I, with 547 ppm sodium erythorbate, 2000 ppm L-arginine",72.28^a ppm and 72.28 ppm
same,"Residual Nitrite, LSMean Conc × Temp","[1]; Phase I, with 547 ppm sodium erythorbate, 2000 ppm L-arginine, 132° F.",63.44^abc ppm
same,"Residual Nitrite, LSMean Conc × Temp","[1]; Phase I, with 547 ppm sodium erythorbate, 2000 ppm L-arginine, 158° F.",77.50^a ppm
same,"Residual Nitrite, LSMean Conc × Temp","[1]; Phase I, with 547 ppm sodium erythorbate, 2000 ppm L-arginine, 165° F.",75.91^ab ppm
same,"Residual Nitrite, LSMean main effect of Concentration","[1]; Phase I, with 547 ppm sodium erythorbate, 3000 ppm L-arginine",54.95^bc ppm and 54.95 ppm
same,"Residual Nitrite, LSMean Conc × Temp","[1]; Phase I, with 547 ppm sodium erythorbate, 3000 ppm L-arginine, 132° F.",60.08^abc ppm
same,"Residual Nitrite, LSMean Conc × Temp","[1]; Phase I, with 547 ppm sodium erythorbate, 3000 ppm L-arginine, 158° F.",65.81^abc ppm
same,"Residual Nitrite, LSMean Conc × Temp","[1]; Phase I, with 547 ppm sodium erythorbate, 3000 ppm L-arginine, 165° F.",38.96^cd ppm
same,"Residual Nitrite, LSMean main effect of Concentration","[1]; Phase I, with 547 ppm sodium erythorbate, 4000 ppm L-arginine",48.16^cd ppm and 48.16 ppm
same,"Residual Nitrite, LSMean Conc × Temp","[1]; Phase I, with 547 ppm sodium erythorbate, 4000 ppm L-arginine, 132° F.",50.99^a-d ppm
same,"Residual Nitrite, LSMean Conc × Temp","[1]; Phase I, with 547 ppm sodium erythorbate, 4000 ppm L-arginine, 158° F.",49.31^a-d ppm
same,"Residual Nitrite, LSMean Conc × Temp","[1]; Phase I, with 547 ppm sodium erythorbate, 4000 ppm L-arginine, 165° F.",44.17^cd ppm
same,"Residual Nitrite, LSMean main effect of Concentration","[1]; Phase I, with 547 ppm sodium erythorbate, 5000 ppm L-arginine",38.14^d ppm and 38.14 ppm
same,"Residual Nitrite, LSMean Conc × Temp","[1]; Phase I, with 547 ppm sodium erythorbate, 5000 ppm L-arginine, 132° F.",41.15^cd ppm
same,"Residual Nitrite, LSMean Conc × Temp","[1]; Phase I, with 547 ppm sodium erythorbate, 5000 ppm L-arginine, 158° F.",25.07^d ppm
same,"Residual Nitrite, LSMean Conc × Temp","[1]; Phase I, with 547 ppm sodium erythorbate, 5000 ppm L-arginine, 165° F.",48.20^bcd ppm
same,"Residual Nitrite, LSMean main effect of Temperature","[1]; Phase I, with 547 ppm sodium erythorbate, 132° F.",48.43 ppm
same,"Residual Nitrite, LSMean main effect of Temperature","[1]; Phase I, with 547 ppm sodium erythorbate, 158° F.",55.64 ppm
same,"Residual Nitrite, LSMean main effect of Temperature","[1]; Phase I, with 547 ppm sodium erythorbate, 165° F.",53.32 ppm
same,"Residual Nitrite, LSMean main effect of Concentration","[1]; Phase II, without 547 ppm sodium erythorbate, 1000 ppm L-arginine",65.37^a ppm and 65.44 ppm
same,"Residual Nitrite, LSMean Conc × Temperature","[1]; Phase II, without 547 ppm sodium erythorbate, 1000 ppm L-arginine, 132° F.",87.36^a ppm
same,"Residual Nitrite, LSMean Conc × Temperature","[1]; Phase II, without 547 ppm sodium erythorbate, 1000 ppm L-arginine, 158° F.",63.54^ab ppm
same,"Residual Nitrite, LSMean Conc × Temperature","[1]; Phase II, without 547 ppm sodium erythorbate, 1000 ppm L-arginine, 165° F.",45.19^ab ppm
same,"Residual Nitrite, LSMean main effect of Concentration","[1]; Phase II, without 547 ppm sodium erythorbate, 2000 ppm L-arginine",66.58^a ppm and 72.28 ppm
same,"Residual Nitrite, LSMean Conc × Temperature","[1]; Phase II, without 547 ppm sodium erythorbate, 2000 ppm L-arginine, 132° F.",65.60^ab ppm
same,"Residual Nitrite, LSMean Conc × Temperature","[1]; Phase II, without 547 ppm sodium erythorbate, 2000 ppm L-arginine, 158° F.",61.51^ab ppm
same,"Residual Nitrite, LSMean Conc × Temperature","[1]; Phase II, without 547 ppm sodium erythorbate, 2000 ppm L-arginine, 165° F.",72.63^ab ppm
same,"Residual Nitrite, LSMean main effect of Concentration","[1]; Phase II, without 547 ppm sodium erythorbate, 3000 ppm L-arginine",57.60^ab ppm and 54.95 ppm
same,"Residual Nitrite, LSMean Conc × Temperature","[1]; Phase II, without 547 ppm sodium erythorbate, 3000 ppm L-arginine, 132° F.",53.90^ab ppm
same,"Residual Nitrite, LSMean Conc × Temperature","[1]; Phase II, without 547 ppm sodium erythorbate, 3000 ppm L-arginine, 158° F.",73.59^a ppm
same,"Residual Nitrite, LSMean Conc × Temperature","[1]; Phase II, without 547 ppm sodium erythorbate, 3000 ppm L-arginine, 165° F.",45.32^ab ppm
same,"Residual Nitrite, LSMean main effect of Concentration","[1]; Phase II, without 547 ppm sodium erythorbate, 4000 ppm L-arginine",60.63^ab ppm and 48.16 ppm
same,"Residual Nitrite, LSMean Conc × Temperature","[1]; Phase II, without 547 ppm sodium erythorbate, 4000 ppm L-arginine, 132° F.",67.76^ab ppm
same,"Residual Nitrite, LSMean Conc × Temperature","[1]; Phase II, without 547 ppm sodium erythorbate, 4000 ppm L-arginine, 158° F.",52.15^ab ppm
same,"Residual Nitrite, LSMean Conc × Temperature","[1]; Phase II, without 547 ppm sodium erythorbate, 4000 ppm L-arginine, 165° F.",61.99^ab ppm
same,"Residual Nitrite, LSMean main effect of Concentration","[1]; Phase II, without 547 ppm sodium erythorbate, 5000 ppm L-arginine",45.02^b ppm and 38.14 ppm
same,"Residual Nitrite, LSMean Conc × Temperature","[1]; Phase II, without 547 ppm sodium erythorbate, 5000 ppm L-arginine, 132° F.",53.87^ab ppm
same,"Residual Nitrite, LSMean Conc × Temperature","[1]; Phase II, without 547 ppm sodium erythorbate, 5000 ppm L-arginine, 158° F.",30.83^b ppm
same,"Residual Nitrite, LSMean Conc × Temperature","[1]; Phase II, without 547 ppm sodium erythorbate, 5000 ppm L-arginine, 165° F.",50.37^ab ppm
same,"Residual Nitrite, LSMean main effect of Temperature","[1]; Phase II, without 547 ppm sodium erythorbate, 132° F.",65.70 ppm
same,"Residual Nitrite, LSMean main effect of Temperature","[1]; Phase II, without 547 ppm sodium erythorbate, 158° F.",56.32^ ppm and 56.32 ppm
same,"Residual Nitrite, LSMean main effect of Temperature","[1]; Phase II, without 547 ppm sodium erythorbate, 165° F.",55.10 ppm
same,residual sodium nitrite,"[2]; 3000 ppm L-arginine, Day 1",55.90
same,residual sodium nitrite,"[2]; 3000 ppm L-arginine, Day 7",55.83
same,residual sodium nitrite,"[2]; 3000 ppm L-arginine, Day 14",62.60
same,residual sodium nitrite,"[2]; 3000 ppm L-arginine, Day 28",58.68
same,residual sodium nitrite,"[2]; 4000 ppm L-arginine, Day 1",49.92
same,residual sodium nitrite,"[2]; 4000 ppm L-arginine, Day 7",60.36
same,residual sodium nitrite,"[2]; 4000 ppm L-arginine, Day 14",53.71
same,residual sodium nitrite,"[2]; 4000 ppm L-arginine, Day 28",79.07
same,residual sodium nitrite,"[2]; 5000 ppm L-arginine, Day 1",73.95
same,residual sodium nitrite,"[2]; 5000 ppm L-arginine, Day 7",61.77
same,residual sodium nitrite,"[2]; 5000 ppm L-arginine, Day 14",52.91
same,residual sodium nitrite,"[2]; 5000 ppm L-arginine, Day 28",100.11
same,NO-Heme,NOS system; [4],23.59^ab ppm
same,Nitrosylation,NOS system; [4],59.68^a %
same,Total Heme,NOS system; [4],40.35^a ppm
same,NO-Heme,NOS system; [5],17.79^b ppm
same,Nitrosylation,NOS system; [5],43.64^a %
same,Total Heme,NOS system; [5],41.71^a ppm
same,NO-Heme,NOS system; [6],28.32^a ppm
same,Nitrosylation,NOS system; [6],55.59^a %
same,Total Heme,NOS system; [6],51.00^a ppm
same,NO-Heme,NOS system; [7],27.94^a ppm
same,Nitrosylation,NOS system; [7],54.26^a %
same,Total Heme,NOS system; [7],52.81^a ppm
same,Cure color (nitrosylation),NOS system; range over L-arginine frankfurters,43.64 to 59.68%
same,"Residual Nitrite, LSMean Conc × Temp","[3]; 1000 ppm L-arginine, 132° F.",85.37 ppm
same,"Residual Nitrite, LSMean Conc × Temp","[3]; 1000 ppm L-arginine, 158° F.",76.56 ppm
same,"Residual Nitrite, LSMean Conc × Temp","[3]; 1000 ppm L-arginine, 165° F.",65.51 ppm
same,"Residual Nitrite, LSMean Conc × Temp","[3]; 2000 ppm L-arginine, 132° F.",82.58 ppm
same,"Residual Nitrite, LSMean Conc × Temp","[3]; 2000 ppm L-arginine, 158° F.",66.33 ppm
same,"Residual Nitrite, LSMean Conc × Temp","[3]; 2000 ppm L-arginine, 165° F.",75.98 ppm
same,"Residual Nitrite, LSMean Conc × Temp","[3]; 3000 ppm L-arginine, 132° F.",78.11 ppm
same,"Residual Nitrite, LSMean Conc × Temp","[3]; 3000 ppm L-arginine, 158° F.",84.73 ppm
same,"Residual Nitrite, LSMean Conc × Temp","[3]; 3000 ppm L-arginine, 165° F.",57.42 ppm
same,"Residual Nitrite, LSMean Conc × Temp","[3]; 4000 ppm L-arginine, 132° F.",72.90 ppm
same,"Residual Nitrite, LSMean Conc × Temp","[3]; 4000 ppm L-arginine, 158° F.",83.35 ppm
same,"Residual Nitrite, LSMean Conc × Temp","[3]; 4000 ppm L-arginine, 165° F.",52.11 ppm
same,"Residual Nitrite, LSMean Conc × Temp","[3]; 5000 ppm L-arginine, 132° F.",57.48 ppm
same,"Residual Nitrite, LSMean Conc × Temp","[3]; 5000 ppm L-arginine, 158° F.",48.52 ppm
same,"Residual Nitrite, LSMean Conc × Temp","[3]; 5000 ppm L-arginine, 165° F.",38.80 ppm
